# Test results from ChEMBL document CHEMBL3045592, “Studies of O,O-dimethyl α-(2,4-dichlorophenoxyacetoxy)ethylphosphonate (HW02) as a new herbicide. 1. Synthesis and herbicidal activity of HW02 and analogues as novel inhibitors of pyruvate dehydrogenase complex” (J Agric Food Chem, 2011).
# What was measured:
# [1] = biological target: Pyruvate dehydrogenase complex (Pisum sativum) (UniProt P52902+P52904); experiment: Inhibition of PDHc in Pisum sativum Zhongwan-2 (pea) shoot mitochondria assessed as decrease in rate of NADH formation using sodium pyruvate as substrate at 10 microg/g preincubated for 25 min before substrate addition measured after 1 min by spectrophotometric assay; format: protein-complex assay; conditions: Lathyrus oleraceus
# [2] = tested on: Digitaria sanguinalis; experiment: Pre-emergence herbicidal activity against Digitaria sanguinalis (hairy crabgrass) assessed as growth inhibition at 1500 ai g/ha after 20 days by green house test; format: functional
# [3] = tested on: Echinochloa crus-galli; experiment: Post-emergence herbicidal activity against Echinochloa crus-galli (barnyard grass) assessed as growth inhibition at 1500 ai g/ha after 20 days by green house test; format: functional
# [4] = tested on: Amaranthus spinosus; experiment: Post-emergence herbicidal activity against Amaranthus spinosus assessed as growth inhibition at 75 ai g/ha after 20 days by green house test; format: functional
# [5] = tested on: Brassica rapa subsp. oleifera; experiment: Pre-emergence herbicidal activity against Brassica rapa subsp. oleifera Si Yue Man assessed as growth inhibition at 1500 ai g/ha after 20 days by green house test; format: functional
# [6] = tested on: Amaranthus spinosus; experiment: Post-emergence herbicidal activity against Amaranthus spinosus assessed as growth inhibition at 450 ai g/ha after 20 days by green house test; format: functional
# [7] = tested on: Cucumis sativus; experiment: Herbicidal activity against Cucumis sativus Jin 4 (cucumber) assessed as inhibition of stem growth after 3 days; format: functional, organism-based; conditions: Jin 4, 72 h
# [8] = tested on: Amaranthus spinosus; experiment: Pre-emergence herbicidal activity against Amaranthus spinosus assessed as growth inhibition at 150 ai g/ha after 20 days by green house test; format: functional
# [9] = Toxicity against Oryza sativa (rice) assessed as growth inhibition at 450 ai g/ha post-emergent application measured after 20 days by green house crop selectivity test; format: organism-based; conditions: in vivo, read-out: GI
# [10] = tested on: Digitaria sanguinalis; experiment: Post-emergence herbicidal activity against Digitaria sanguinalis (hairy crabgrass) assessed as growth inhibition at 1500 ai g/ha after 20 days by green house test; format: functional
# [11] = tested on: Setaria viridis; experiment: Pre-emergence herbicidal activity against Setaria viridis (green foxtail) assessed as growth inhibition at 150 ai g/ha after 20 days by green house test; format: functional
# [12] = tested on: Chenopodium album; experiment: Pre-emergence herbicidal activity against Chenopodium album assessed as growth inhibition at 75 ai g/ha after 20 days by green house test; format: functional
# [13] = tested on: Amaranthus retroflexus; experiment: Post-emergence herbicidal activity against Amaranthus retroflexus assessed as growth inhibition at 450 ai g/ha after 20 days by green house test; format: functional
# [14] = tested on: Chenopodium album; experiment: Post-emergence herbicidal activity against Chenopodium album assessed as growth inhibition at 150 ai g/ha after 20 days by green house test; format: functional
# [15] = tested on: Setaria viridis; experiment: Post-emergence herbicidal activity against Setaria viridis (green foxtail) assessed as growth inhibition at 450 ai g/ha after 20 days by green house test; format: functional
# [16] = tested on: Chenopodium album; experiment: Pre-emergence herbicidal activity against Chenopodium album assessed as growth inhibition at 450 ai g/ha after 20 days by green house test; format: functional
# [17] = tested on: Amaranthus spinosus; experiment: Pre-emergence herbicidal activity against Amaranthus spinosus assessed as growth inhibition at 75 ai g/ha after 20 days by green house test; format: functional
# [18] = tested on: Cucumis sativus; experiment: Herbicidal activity against Cucumis sativus Jin 4 (cucumber) assessed as inhibition of root growth after 3 days; format: functional, organism-based; conditions: Jin 4, 72 h
# [19] = tested on: Abutilon theophrasti; experiment: Pre-emergence herbicidal activity against Abutilon theophrasti (velvetleaf) assessed as growth inhibition at 450 ai g/ha after 20 days by green house test; format: functional
# [20] = tested on: Digitaria sanguinalis; experiment: Post-emergence herbicidal activity against Digitaria sanguinalis (hairy crabgrass) assessed as growth inhibition at 75 ai g/ha after 20 days by green house test; format: functional
# [21] = tested on: Medicago sativa; experiment: Post-emergence herbicidal activity against Medicago sativa (alfalfa) assessed as growth inhibition at 1500 ai g/ha after 20 days by green house test; format: functional
# [22] = tested on: Brassica juncea; experiment: Post-emergence herbicidal activity against Brassica juncea assessed as growth inhibition at 450 ai g/ha after 20 days by green house test; format: functional
# [23] = tested on: Setaria viridis; experiment: Pre-emergence herbicidal activity against Setaria viridis (green foxtail) assessed as growth inhibition at 450 ai g/ha after 20 days by green house test; format: functional
# [24] = biological target: Pyruvate dehydrogenase complex (Vigna radiata var. radiata); experiment: Inhibition of PDHc in Vigna radiata var. radiata VC2778A shoot mitochondria assessed as decrease in rate of NADH formation using sodium pyruvate as substrate preincubated for 25 min before substrate addition measured after 1 min by spectrophotometric assay; format: protein-complex assay
# [25] = Toxicity against Triticum aestivum Yang Mai 1 (wheat) assessed as growth inhibition at 450 ai g/ha post-emergent application measured after 20 days by green house crop selectivity test; format: organism-based; conditions: Yang Mai 1, triticum aestivum, in vivo, read-out: GI
# [26] = Toxicity against Triticum aestivum Yang Mai 1 (wheat) assessed as growth inhibition at 600 ai g/ha post-emergent application measured after 20 days by green house crop selectivity test; format: organism-based; conditions: Yang Mai 1, triticum aestivum, in vivo, read-out: GI
# [27] = tested on: Cardamine hirsuta; experiment: Post-emergence herbicidal activity against Cardamine hirsuta assessed as growth inhibition at 225 ai g/ha after 20 days by green house test; format: functional
# [28] = tested on: Medicago sativa; experiment: Post-emergence herbicidal activity against Medicago sativa (alfalfa) assessed as growth inhibition at 150 ai g/ha after 20 days by green house test; format: functional
# [29] = tested on: Eclipta prostrata; experiment: Post-emergence herbicidal activity against Eclipta prostrata assessed as growth inhibition at 37.5 ai g/ha after 20 days by green house test; format: functional
# [30] = tested on: Oryza sativa; experiment: Inhibition of PDHc in Oryza sativa (rice) shoot mitochondria assessed as decrease in rate of NADH formation using sodium pyruvate as substrate at 100 microg/g preincubated for 25 min before substrate addition measured after 1 min by spectrophotometric assay
# [31] = tested on: Pisum sativum; experiment: Post-emergence herbicidal activity against Pisum sativum Zhongwan-2 (pea) assessed as growth inhibition at 450 ai g/ha after 20 days by green house test; conditions: Lathyrus oleraceus
# [32] = Toxicity against Triticum aestivum Yang Mai 1 (wheat) assessed as growth inhibition at 300 ai g/ha post-emergent application measured after 20 days by green house crop selectivity test; format: organism-based; conditions: Yang Mai 1, triticum aestivum, in vivo, read-out: GI
# [33] = tested on: Xanthium strumarium; experiment: Post-emergence herbicidal activity against Xanthium strumarium (cocklebur) assessed as growth inhibition at 18.75 ai g/ha after 20 days by green house test; format: functional
# [34] = Toxicity against Zea mays Gao you 1 (maize) assessed as growth inhibition at 300 ai g/ha post-emergent application measured after 20 days by green house crop selectivity test; format: organism-based; conditions: Gao you 1, zea mays, in vivo, read-out: GI
# [35] = tested on: Oryza sativa; experiment: Inhibition of PDHc in Oryza sativa (rice) shoot mitochondria assessed as decrease in rate of NADH formation using sodium pyruvate as substrate at 1000 microg/g preincubated for 25 min before substrate addition measured after 1 min by spectrophotometric assay
# [36] = tested on: Cardamine hirsuta; experiment: Post-emergence herbicidal activity against Cardamine hirsuta assessed as growth inhibition at 75 ai g/ha after 20 days by green house test; format: functional
# [37] = tested on: Medicago sativa; experiment: Post-emergence herbicidal activity against Medicago sativa (alfalfa) assessed as growth inhibition at 300 ai g/ha after 20 days by green house test; format: functional
# [38] = tested on: Portulaca oleracea; experiment: Post-emergence herbicidal activity against Portulaca oleracea assessed as growth inhibition at 18.75 ai g/ha after 20 days by green house test; format: functional
SMILES,inhibition [1],growth inhibition (GI) [2],growth inhibition (GI) [3],growth inhibition (GI) [4],growth inhibition (GI) [5],growth inhibition (GI) [6],growth inhibition (GI) [8],inhibition at 480 h [9],growth inhibition (GI) [10],growth inhibition (GI) [11],growth inhibition (GI) [12],growth inhibition (GI) [13],growth inhibition (GI) [14],growth inhibition (GI) [15],growth inhibition (GI) [16],growth inhibition (GI) [17],growth inhibition (GI) [19],growth inhibition (GI) [20],growth inhibition (GI) [21],growth inhibition (GI) [22],further results
"O=C(O)COc1ccc(Cl)cc1Cl [2,4-DICHLOROPHENOXYACETIC ACID]",18.5%,90%,50%,60%,90%,92.5%,0%,37.5%,50%,5.5%,0%,100%,92.5%,0%,0%,0%,0%,0%,90%,100%,IC50 [7]: 10.1 µM; IC50 [18]: 0.228 µM; growth inhibition (GI) [23]: 67.5%
COP(=O)(OC)C(C)OC(=O)COc1ccc(Cl)cc1Cl (stereo not drawn) [CLACYFOS],50.8%,75%,50%,90%,90%,100%,0%,0%,50%,0%,0%,100%,96%,0%,0%,0%,0%,0%,90%,100%,IC50 [24]: 12.8 µM; inhibition at 480 h [25]: 0%; inhibition at 480 h [26]: 0%; growth inhibition (GI) [27]: 95%; IC50 [7]: 7.56 µM; growth inhibition (GI) [28]: 90%; growth inhibition (GI) [29]: 72%; inhibition [30]: 21.3%; growth inhibition (GI) [31]: 97.5%; inhibition at 480 h [32]: 0%; IC50 [18]: 0.0025 µM; growth inhibition (GI) [33]: 50%; inhibition at 480 h [34]: 0%; inhibition [35]: 55.1%; growth inhibition (GI) [36]: 88%; growth inhibition (GI) [23]: 35%; growth inhibition (GI) [37]: 97%; growth inhibition (GI) [38]: 50%
COP(=O)(COC(=O)COc1cccc(C(F)(F)F)c1)OC,31.1%,75%,<=50%,0%,75%,57.5%,0%,32.5%,<=50%,0%,0%,57.5%,42.5%,0%,0%,0%,0%,0%,90%,82.5%,growth inhibition (GI) [31]: 10%; growth inhibition (GI) [23]: 35%
